Measurements published in patent US20040024055A1, “Pharmaceutical composition containing the exract of saururus chinensis baill useful as an anticancer agent and a process for the preparation thereof” (priority 2000, published 2004).
In brackets after ≈: the same amount, converted by molar mass.

Assays:
[1] = system: HT1080; test: MTT analysis, anticancer activity; format: cell-based, human; details: Homo sapiens, HT-1080, 48 hr
[2] = system: SK-Hep-1; test: Adhesion of cancer cell to Matri-Gel; format: cell-based, human
Procedure: (§1) After treating HNP-98701 on tissue culture plate coated with the matrices, cancer cell was attached thereupon. To be specific, 50 μl/ml of […], 2 μg/ml of laminin, 2 μg/ml of collagen and 2 μg/ml of gelatin were coated on the surface of 96-well microplate (Corning Co.) per well. After solidifying for 2 hr, HNP-98701 was added to each well and treated for 1 hr. […] After treating the substances for 1 hr, cancer cell was added to each cell, and it was cultured for 3 hr. […] After culturing these cell lines for 3 hr, they were centrifuged. After collecting biomass only, it was washed with distilled water or PBS buffer solution for three times. […] Then, absorbance was measured at 560-405 nm with automatic Eliza detector (Molecular […] Corp., USA). […] Each experiment was performed for three times repeatedly.

[3] = system: SK-MEL-28; test: MTT analysis, anticancer activity; format: cell-based, human; details: Homo sapiens, SK-MEL-28, 48 hr
[4] = system: NIH-3T3; test: Adhesion of cell to Matri-Gel; format: cell-based, mouse
Procedure: as §1

[5] = system: HS-746T; test: MTT analysis, anticancer activity; format: cell-based, human; details: Homo sapiens, Hs746T; MTT, 48 hr
[6] = system: SK-Hep-1; test: Adhesion of cancer cell to Collagen; format: cell-based, human
Procedure: as §1

[7] = system: Hep-2; test: Adhesion of cancer cell to Collagen; format: cell-based, human
Procedure: as §1

[8] = system: SK-MEL-28; test: Adhesion of cancer cell to Collagen; format: cell-based, human
Procedure: as §1

[9] = system: NIH-3T3; test: Adhesion of cell to Collagen; format: cell-based, mouse
Procedure: as §1

[10] = system: SK-Hep-1 liver cancer cell line; test: MTT analysis, anticancer activity; format: cell-based, human; details: Homo sapiens, SK-HEP1, 48 hr
[11] = system: NCI-H69; test: MTT analysis, anticancer activity; format: cell-based, human; details: Homo sapiens, NCI-H69; MTT, 48 hr
[12] = system: HS27; test: MTT analysis, cytotoxicity against normal cell line; format: cell-based, human; details: Homo sapiens, HS27; MTT, 48 hr

SMILES: COc1cccc2c1C(=O)c1c(O)c3c(c(O)c1C2=O)C[C@@](O)(C(=O)CO)C[C@@H]3O[C@H]1C[C@H](N)[C@H](O)[C@H](C)O1 [Adriamycin, adriamycin (doxorubicin)]
- IC50 [1]: 0.719 µg/mL (≈ 1.32 µM)
- Adhesion SK-Hep-1 (%) ([2]; 0.1 μg/ml): 99.04%
- Adhesion SK-Hep-1 (%) ([2]; 1 μg/ml): 95.93%
- Adhesion SK-Hep-1 (%) ([2]; 10 μg/ml): 88.74%
- IC50 [3]: 0.75 µg/mL (≈ 1.38 µM)
- Adhesion NIH-3T3 (%) ([4]; 0.1 μg/ml): 115.00%
- Adhesion NIH-3T3 (%) ([4]; 1 μg/ml): 108.65%
- Adhesion NIH-3T3 (%) ([4]; 10 μg/ml): 104.23%
- IC50 [5]: > 50 µg/mL
- Adhesion SK-Hep-1 (%) ([6]; 0.1 μg/ml): 98.83%
- Adhesion SK-Hep-1 (%) ([6]; 1 μg/ml): 97.89%
- Adhesion SK-Hep-1 (%) ([6]; 10 μg/ml): 103.28%
- Adhesion Hep-2 (%) ([7]; 0.1 μg/ml): 91.10%
- Adhesion Hep-2 (%) ([7]; 1 μg/ml): 93.11%
- Adhesion Hep-2 (%) ([7]; 10 μg/ml): 88.85%
- Adhesion SK-MEL-28 (%) ([8]; 0.1 μg/ml): 94.27%
- Adhesion SK-MEL-28 (%) ([8]; 1 μg/ml): 94.49%
- Adhesion SK-MEL-28 (%) ([8]; 10 μg/ml): 94.71%
- Adhesion NIH-3T3 (%) ([9]; 0.1 μg/ml): 111.98%
- Adhesion NIH-3T3 (%) ([9]; 1 μg/ml): 109.97%
- Adhesion NIH-3T3 (%) ([9]; 10 μg/ml): 111.13%
- IC50 [10]: 0.282 µg/mL (≈ 0.518 µM)
- IC50 [11]: 0.168 µg/mL (≈ 0.308 µM)
- IC50 [12]: 0.218 µg/mL (≈ 0.401 µM)
